From patent US6555125B2, “Lesion and ulcer medication” (priority 1999, dated 2003)

How the values were obtained:
[1] = tested on: Streptococcus mutans; conditions: especially with respect to Streptococcus mutans; cited from earlier work
[2] = Antimicrobial/bacteriostatic effect of zinc oxide at low levels; conditions: even at low levels

[O]=[Zn] [Zinc oxide, Zinc Oxide]
antimicrobial properties [1]: antimicrobial properties | antimicrobial/bacteriostatic effect [2]: effective antimicrobial/bacteriostatic effect
